This is an account of results in patent US6410580B1, “Sulfonylamino derivatives which inhibit matrix-degrading metalloproteinases” (Novartis AG, priority 2000, dated 2002).

As a reminder, the melting point is the temperature of the solid-liquid transition.

The structures appear in SMILES notation.

The compound `O=C(O)[C@@H](CCN1C(=O)[C@@H]2Cc3ccccc3CN2C1=O)NS(=O)(=O)c1ccc(-c2ccc(Cl)cc2)cc1` [Example 36, (2R)-(4′-Chlorobiphenyl-4-sulfonylamino)-4-[(1,3-dioxo-1,5,10, (10aS)-tetrahydroimidazo-[1,5-b]isoquinolin-2-yl)]butyric Acid] came in with a melting point of 70 °C.

Regarding `O=C(O)[C@@H](CC(=O)N1CCOCC1)NS(=O)(=O)c1ccc(-c2ccc(Cl)cc2)cc1` [Example 43, (2R)-(4′-Chlorobiphenyl-4-sulfonylamino)-4-morpholin-4-yl-4-oxobutyric Acid], the melting point lay in the range of 144 to 146 °C.

`Cn1c(=O)n(CCCCC(NS(=O)(=O)c2ccc(-c3ccc(Cl)cc3)cc2)C(=O)O)c(=O)c2ccccc21` [Example 31, (2R,S)-(4′-Chlorobiphenyl-4-sulfonylamino)-6-(1,2,3,4-tetrahydro-1-methyl-2,4-dioxoquinazolin-3-yl)hexanoic Acid] came in with a melting point of 208 to 210 °C.

`O=C(NO)[C@@H](CC(=O)N1CCOCC1)NS(=O)(=O)c1ccc(Oc2ccccc2)cc1` [Example 44, (2R)-(4-Phenyloxybenzenesulfonylamino)-4-morpholin-4-yl-4-oxobutyric Acid Hydroxyamide] displayed a melting point of 161 to 163 °C.

Regarding `Cn1c(=O)n(CCC[C@@H](NS(=O)(=O)c2ccc(-c3ccccc3)cc2)C(=O)O)c(=O)c2ccccc21` [Example 5, (2R)-(4-Biphenylsulfonylamino)-5-(1,2,3,4-tetrahydro-1-methyl-2,4-dioxoquinazolin-3-yl)pentanoic Acid], the melting point was in the range of 222 to 224 °C.

In turn, `CN1C(=O)N(CC[C@@H](NS(=O)(=O)c2ccc(-c3ccc(Cl)cc3)cc2)C(=O)O)C(=O)C1(C)C` [Example 35, (2R)-(4′-Chlorobiphenyl-4-sulfonylamino)-4-(3,4,4-trimethyl-2,5-dioxoimidazolidin-1-yl)-butyric Acid] came in with a melting point of 43 °C.

For `Cn1c(=O)n(CCC[C@@H](NS(=O)(=O)c2ccc(-c3ccc(Cl)cc3)cc2)C(=O)NO)c(=O)c2ccccc21` [Example 19, (2R)-(4′-Chlorobiphenyl-4-sulfonylamino)-5-(1,2,3,4-tetrahydro-1-methyl-2,4-dioxoquinazolin-3-yl)pentanoic Acid Hydroxyamide], the melting point was found to be 235 °C.

`O=C(O)[C@@H](CC(=O)N1CCOCC1)NS(=O)(=O)c1ccc(Oc2ccccc2)cc1` [Example 42, (2R)-(4-Phenyloxybenzenesulfonylamino)-4-morpholin-4-yl-4-oxobutyric Acid] registered a melting point of 147 to 149 °C.

For the compound `O=C(O)[C@@H](CCCN1C(=O)c2ccccc2S1(=O)=O)NS(=O)(=O)c1ccc(-c2ccc(Cl)cc2)cc1` [Example 3, (2R)-(4′-Chlorobiphenyl-4-sulfonylamino)-5-(1,1,3-trioxo-2,3-dihydrobenzoisothiazol-2-yl)pentanoic Acid], the melting point is 177 to 179 °C.

For the compound `CN1C(=O)N(CC(NS(=O)(=O)c2ccc(-c3ccc(Cl)cc3)cc2)C(=O)O)C(=O)C1(C)C` [Example 39, (2R,S)-(4′-Chlorobiphenyl-4-sulfonylamino)-3-(3,4,4-trimethyl-1,2,5-dioxoimidazolidin-1-yl)propanoic Acid], the melting point is 198 to 201 °C.

`Cc1ccc(S(=O)(=O)NCCC[C@@H](NS(=O)(=O)c2ccc(-c3ccc(Cl)cc3)cc2)C(=O)O)cc1` [Example 7, (2R)-(4′-Chlorobiphenyl-4-sulfonylamino)-5-(4-methylbenzenesulfonylamino)pentanoic Acid] gave a melting point of 62 °C.

Consider `CC1(C)NC(=O)N(CCCCC(NS(=O)(=O)c2ccc(-c3ccc(Cl)cc3)cc2)C(=O)O)C1=O` [Example 32, (2R,S)-(4′-Chlorobiphenyl-4-sulfonylamino)-6-(4,4-dimethyl-2,5-dioxoimidazolidin-1-yl)-hexanoic Acid], for which the melting point lay within 78 to 80 °C.

`O=C(NO)[C@@H](CC(=O)N1CCOCC1)NS(=O)(=O)c1ccc(-c2ccc(Cl)cc2)cc1` [Example 45, (2R)-(4′-Chlorobiphenyl-4-sulfonylamino)-4-morpholin-4-yI-4-oxobutyric Acid Hydroxyamide] returned a melting point of 139 to 141 °C.

Take `O=C(NO)[C@@H](CCCN1C(=O)c2ccccc2S1(=O)=O)NS(=O)(=O)c1ccc(-c2ccc(Cl)cc2)cc1` [Example 18, (2R)-(4′-Chlorobiphenyl-4-sulfonylamino)-5-(1,1,3-trioxo-2,3-dihydrobenzoisothiazol-2-yl)pentanoic Acid Hydroxyamide]: the melting point is 200 to 205 °C (dec.).

Regarding `Cn1c(=O)n(CC(NS(=O)(=O)c2ccc(-c3ccc(Cl)cc3)cc2)C(=O)O)c(=O)c2ccccc21` [Example 40, (2R,S)-(4′-Chlorobiphenyl-4-sulfonylamino)-3-(1,2,3,4-tetrahydro-1-methyl-2,4-dioxoquinazolin-3-yl)propanoic Acid], the melting point is 218 °C (dec.).

In turn, `CN1C(=O)N(CC[C@@H](NS(=O)(=O)c2ccc(-c3ccc(Cl)cc3)cc2)C(=O)NO)C(=O)C1(C)C` [Example 38, (2R)-(4′-Chlorobiphenyl-4-sulfonylamino)-4-(3,4,4-trimethyl-2,5-dioxoimidazolidin-1-yl)-butyric Acid Hydroxyamide] had a melting point of 117 to 120 °C.

Compound `Cn1c(=O)n(CCC[C@@H](NS(=O)(=O)c2ccc(-c3ccc(Cl)cc3)cc2)C(=O)O)c(=O)c2ccccc21` [Example 4, (2R)-(4′-Chlorobiphenyl-4-sulfonylamino)-5-(1,2,3,4-tetrahydro-1-methyl-2,4-dioxoquinazolin-3-yl)pentanoic Acid] came in with a melting point of 188 to 191 °C.

Regarding `O=C(O)[C@@H](CCCN1C(=O)c2ccccc2C1=O)NS(=O)(=O)c1ccc(-c2ccc(Cl)cc2)cc1` [Example 1, (2R)-(4′-Chlorobiphenyl-4-sulfonylamino)-5-(1,3-dioxo-1,3-dihydroisoindol-2-yl)pentanoic Acid], the melting point fell in the range of 179 to 181 °C.

`O=C(NO)[C@@H](CCCN1C(=O)c2ccccc2C1=O)NS(=O)(=O)c1ccc(-c2ccc(Cl)cc2)cc1` [Example 2, (2R)-(4′-Chiorobiphenyl4-sulfonylamino)-5-(1,3-dioxo-1,3-dihydroisoindol-2-yl)pentanoic Acid Hydroxyamide]: the melting point was 204 to 206 °C (dec.).

On to `Cn1c(=O)n(CCC[C@@H](NS(=O)(=O)c2ccc(-c3ccccc3)cc2)C(=O)NO)c(=O)c2ccccc21` [Example 20, (2R)-(4-Biphenylsulfonylamino)-5-(1,2,3,4-tetrahydro-1-methyl-2,4-dioxoquinazolin-3-yl)pentanoic Acid Hydroxyamide], for which the melting point was 202 to 203 °C.
